# Data as given in US5093332A, “Substituted thieno(2,3-B)(1,4)thiazine-6-sulfonamides as antiglaucoma agents” (priority 1990, dated 1992).
# Structures can show the parent of a compound that is named as a salt. Where two headings read alike, the source gives them in different places.
# Assays:
# [1] = biological target: T1, human carbonic anhydrase II (Homo sapiens, UniProt P00918); test: Carbonic Anhydrase Inhibition Assay; assay type: biochemical
# [2] = biological target: T1, human carbonic anhydrase II; test: Carbonic Anhydrase Binding Assay
# [3] = background statement; cited from earlier work
# [4] = background statement; cited from earlier work; remark: listed apart in the source
# [5] = in vitro inhibition of human carbonic anhydrase II, read-out: IC50
# [6] = in vitro binding for human carbonic anhydrase II, read-out: Ki
Structure (SMILES),"IC50 [1, 5] [µM]","Ki [2, 6] [µM]",further results
"COCCN(CCOC)CCC1CNc2cc(S(N)(=O)=O)sc2S1(=O)=O (centres unmarked) [Example 19, 3-[2-Bis-(2-methoxyethyl)aminoethyl]-2,3-dihydro-4,4-dioxo-6-sulfamoyl-1H-thieno[2,3-b][1,4]thiazine Hydrochloride]",,,IC50 [1]: < 10 µM; Ki [2]: < 10 µM
"NNC(=O)CC1C(=O)Nc2cc(S(N)(=O)=O)sc2S1(=O)=O (centres unmarked) [Example 13, (2,3-Dihydro-6-sulfamoyl-2,4,4-trioxo-1H-thieno[2,3-b][1,4]thiazin-3-yl)acetic Acid Hydrazide]",< 10,< 10,
"COC(=O)CC1C(=O)Nc2cc(S(N)(=O)=O)sc2S1(=O)=O (centres unmarked) [Example 11, Methyl (2,3-Dihydro-2,4,4-trioxo-6-sulfamoyl-1H-thieno[2,3-b][1,4]thiazin-3-yl)acetate]",< 10,< 10,
"NS(=O)(=O)c1cc2c(s1)S(=O)(=O)C(CCO)CN2 (centres unmarked) [Example 10, 3-(2-Hydroxyethyl)-2,3-dihydro-4,4-dioxo-6-sulfamoyl-1H-thieno[2,3-b][1,4]thiazine]",< 10,< 10,
CC[C@@H]1C(=O)OC[C@@H]1Cc1cncn1C [pilocarpine],,,reduce intraocular pressure [3]: reduce intraocular pressure
"NS(=O)(=O)c1cc2c(s1)S(=O)(=O)C(CC(=O)O)C(=O)N2 (centres unmarked) [Example 5, (2,3-Dihydro-2,4,4-trioxo-6-sulfamoyl-1H-thieno[2,3-b][1,4]thiazin-3-yl)acetic acid]",< 10,< 10,
"NS(=O)(=O)c1cc2c(s1)S(=O)(=O)CC(=O)N2 [Example 4, 2,3-Dihydro-6-sulfamoyl-2,4,4-trioxo-1H-thieno[2,3-b][1,4]thiazine]",,,IC50 [1]: < 10 µM; Ki [2]: < 10 µM
"CCOC(=O)NCC1C(=O)Nc2cc(S(N)(=O)=O)sc2S1(=O)=O (centres unmarked) [Example 14, 2,3-Dihydro-3-ethoxycarbonylaminomethyl-2,4,4-trioxo-6-sulfamoyl-1H-thieno[2,3-b][1,4]thiazine]",< 10,< 10,
"COC(=O)CC1Sc2sc(S(N)(=O)=O)cc2NC1=O (centres unmarked) [Example 12, Methyl (2,3-Dihydro-2-oxo-6-sulfamoyl-1H-thieno[2,3-b][1,4]thiazin-3-yl)acetate]",< 10,< 10,
"NS(=O)(=O)c1cc2c(s1)SC(CC(=O)O)C(=O)N2 (centres unmarked) [Example 2, (2,3-Dihydro-2-oxo-6-sulfamoyl-1H-thieno[2,3-b][1,4]thiazin-3-yl)acetic Acid]",< 10,< 10,
"NS(=O)(=O)c1cc2c(s1)S(=O)(=O)CCN2 [Example 6, 2,3-Dihydro-4,4-dioxo-6-sulfamoyl-1H-thieno[2,3-b][1,4]thiazine]",< 10,< 10,
CNC(=O)Oc1ccc2c(c1)[C@]1(C)CCN(C)[C@@H]1N2C [physostigmine],,,reduce intraocular pressure [3]: reduce intraocular pressure
"CC(C)CNCCC1CNc2cc(S(N)(=O)=O)sc2S1(=O)=O (centres unmarked) [Example 18, 3-(2-Isobutylaminoethyl)-2,3-dihydro-4,4-dioxo-6-sulfamoyl-1H-thieno[2,3-b][1,4]thiazine Hydrochloride]",< 10,< 10,
"COCCOCCN(CCOC)C(=O)CC1C(=O)Nc2cc(S(N)(=O)=O)sc2S1(=O)=O (centres unmarked) [Example 16, N-Methoxyethoxyethyl-N-methoxyethyl(2,3-dihydro-2,4,4-trioxo-6-sulfamoyl-1H-thieno[2,3-b][1,4]thiazin-3-yl)acetamide]",< 10,< 10,
"NS(=O)(=O)c1cc2c(s1)S(=O)(=O)CC(=S)N2 [Example 8, 2,3-Dihydro-4,4-dioxo-6-sulfamoyl-2-thiono-1H-thieno[2,3-b][1,4]thiazine]",< 10,< 10,
"NS(=O)(=O)c1cc2c(s1)SCC(=O)N2 [Example 1, 2,3-Dihydro-2-oxo-6-sulfamoyl-1H-thieno[2,3-b][1,4]thiazine]",< 10,< 10,
"COCCOCCN(CCOC)CCC1CNc2cc(S(N)(=O)=O)sc2S1(=O)=O (centres unmarked) [Example 20, 3-[2-(N-Methoxyethoxyethyl-N-methoxyethylamino)ethyl]-2,3-dihydro-4,4-dioxo-6-sulfamoyl-1H-thieno[2,3-b][1,4]thiazine Hydrochloride]",< 10,< 10,
"CC(C)(C)NC[C@H](O)COc1nsnc1N1CCOCC1 [(S)-1-tert-Butylamino-3-[(4-morpholino-1,2-5-thiadiazol-3-yl)ox-yl]-2-propanol]",,,reduce intraocular pressure [3]: found to reduce intraocular pressure; duration of activity [4]: long duration of activity; local anesthetic properties [4]: devoid of local anesthetic properties; tolerance [4]: minimal tolerance
"COCCOCCN(CCOC)CCC1C(=O)Nc2cc(S(N)(=O)=O)sc2S1(=O)=O (centres unmarked) [Example 17, 3-[2-(N-Methoxyethoxyethyl-N-methoxyethylamino)ethyl]-2,3-dihydro-2,4,4-trioxo-6-sulfamoyl-1H-thieno[2,3-b][1,4]thiazine]",< 10,< 10,
